Experimental data as given in the SangsterLogP compilation.

Assay: method code SF, from DOI: 10.1021/js960111p, PMID: 9002468
Details: for logD: pH 12.0

logP	SMILES	logD
3	c1ccc2c3c([nH]c2c1)CCCC3	
2.08	COc1ccc2[nH]ccc2c1	
3.02	Cc1ccc2[nH]c(C)cc2c1	
2.93	Clc1ccc2[nH]ccc2c1	
2.55	Cn1ccc2ccccc21	
2.67	Cc1ccc2[nH]ccc2c1	
1.29	Oc1ccc2[nH]ccc2c1	

More lines, now with the values behind:

SMILES	logP	logD
Cc1nccc2c1[nH]c1ccccc12		2.89
c1ccc2c(c1)[nH]c1cnccc12		2.65
CC1NCCc2c1[nH]c1ccc([N+](=O)[O-])cc21 (stereo not drawn)		2.07
COc1ccc2[nH]c3c(c2c1)CCNC3C (stereo not drawn)		1.15
Cc1nccc2c3ccccc3n(C)c12		3.01
c1ccc2c3c([nH]c2c1)CNCC3		1.98
CC1NCCc2c1[nH]c1ccc(Cl)cc21 (stereo not drawn)		2.3
NCCc1c[nH]c2ccccc12		1.35
Cn1c2ccccc2c2ccccc21		3.99
COc1ccc2c3c([nH]c2c1)C(C)NCC3 (stereo not drawn)		1.37
CC1NCCc2c1[nH]c1ccccc21 (stereo not drawn)		2.06
